Measured values published in US9758484B2 (Asieris Pharmaceutical Technologies Co., Ltd., priority 2013, dated 2017).
Values joined by “and” are separate entries in the source; they are usually repeats but may differ in a detail not shown here. Identical values can stand only once. Counter-ions that a name gives are not always drawn. Like-named read-outs stand apart in the source and are kept apart here.

Columns and labels:
[1] = Solubility tests of nitroxoline and nitroxoline salts in aqueous buffers and water; format: physicochemical; conditions: for solubility at 30 min: thermodynamic from solid; for solubility at a physiologically relevant pH: pH of 4.5 to 8, in contrast to nitroxoline and acid addition salts
Method: 1) Aqueous buffer solutions with varying pH were prepared as follows: • i. Water: distilled water; • ii. pH=1.2 buffer: 7.65 mL 36.5% HCl solution was diluted to 1000 mL with water; • iii. pH=4.5 buffer: 18 g sodium acetate and 9.8 mL acetic acid were diluted to 1000 mL with water; • iv. pH=5.0 buffer: sodium hydroxide was added to 0.2 mol/L monosodium phosphate (NaH2PO4) solution until the pH was adjusted to 5.0; • v. pH=6.0 buffer: 18 g sodium acetate were added into 20 mL acetic acid solution (1 M), and the mixture was diluted to 500 mL with water; • vi. pH=6.8 buffer: 250 mL of 0.2 M monopotassium phosphate (KH2PO4) solution were added to 118 mL of 0.2 M sodium hydroxide solution, and the mixture was diluted to 1000 mL with water; • vii. pH=7.4 buffer: 1.36 g monopotassium phosphate (KH2PO4) were added to 79 mL of 0.1 M sodium hydroxide solution, and the mixture was diluted to 200 mL with water; and • viii pH=8.0 buffer: 5.59 g potassium biphosphate (K2HPO4) and 0.41 g monopotassium. phosphate (KH2PO4) were added to 1000 mL water and mixed.
2) Solubility tests were performed generally as follows:
Under a temperature of 25±2° C., 10 mg of each salt sample was weighed and added to a 100 mL volumetric bottle. 0.25 mL buffer was added to the bottle, which was shaken vigorously for 30 seconds every 5 min.
If the sample was not completely dissolved, 0.7 mL of the same buffer was added, and dissolution was observed by the same shaking procedure.
If the sample was not completely dissolved, 8.5 mL of the same buffer was added, and dissolution was observed by the same shaking procedure.
If the sample was not completely dissolved, 85 mL of the same buffer was added, and dissolution was observed by the same shaking procedure.

[2] = In vivo urinary excretion of nitroxoline and nitroxoline salts in mice; parameters: species or system CD-1 ICR mice
Method: Urine samples were collected in the following periods of time: 0-2, 2-6, 6-24 h. Due to the small volume of the urine from mice, the collecting system in the cage was washed with water at each collecting time. Urine samples and their wash samples were analyzed according to the same methods used in the beagle dog study (Example 24).
(§1) The same study was repeated with APL-1092, nitroxoline lysine salt.

[3] = In vivo urinary excretion of nitroxoline and nitroxoline salts in beagle dogs
Method: Urine samples were collected in the following periods of time: 0-2, 2-4, 4-6, 6-8, 8-24 h. Urine samples were analyzed by LC/MS/MS method utilizing an Agilent 1100 HPLC system with a CTC auto-sampler, an AB API4000 mass spectrometer, and a column of ACQUITY UPLC BEH C18 (2.1*50 mm) Dexamethasone was used as an internal standard. […] The range of linearity was determined to be 25˜5000 ng/mL.
as §1

[4] = distilled water, 25 °C, water, distilled water, 25±2° C., read-out: Solubility water
[5] = pH 1.2 buffer (dilute HCl), 25 °C, pH 1.2, simulated gastric fluid, pH=1.2 buffer, 25±2° C., read-out: Solubility pH 1.2
[6] = pH 4.5 acetate buffer, 25 °C, pH 4.5, aqueous buffer, pH=4.5 buffer, 25±2° C., read-out: Solubility pH 4.5
[7] = pH 5.0 phosphate buffer, 25 °C, pH 5, aqueous buffer, pH=5.0 buffer, 25±2° C., read-out: Solubility pH 5
[8] = pH 6.0 acetate buffer, 25 °C, pH 6, aqueous buffer, pH=6.0 buffer, 25±2° C., read-out: Solubility pH 6
[9] = pH 6.8 phosphate buffer, 25 °C, pH 6.8, aqueous buffer, pH=6.8 buffer, 25±2° C., read-out: Solubility pH 6.8
[10] = pH 7.4 phosphate buffer, 25 °C, pH 7.4, aqueous buffer, buffer headed 'pH .4', 25±2° C., read-out: Solubility pH .4
[11] = pH 8.0 phosphate buffer, 25 °C, pH 8, aqueous buffer, pH=8.0 buffer, 25±2° C., read-out: Solubility pH 8.0

Cl.O=[N+]([O-])c1ccc(O)c2ncccc12 [APL-1071, Nitroxoline HCl Salt]
solubility at 30 min ([1]; aqueous buffers pH 1.2 to 8, 25 °C, pH 1.2, aqueous buffer, all pHs tested, from pH 1.2 to 8, read-out: solubility at all pHs tested): < 100 µg/mL
solubility at 30 min [1, 4]: < 100 µg/mL
solubility at 30 min [1, 5]: < 100 µg/mL
solubility at 30 min [1, 6]: < 100 µg/mL
solubility at 30 min [1, 7]: < 100 µg/mL
solubility at 30 min [1, 8]: < 100 µg/mL
solubility at 30 min [1, 9]: < 100 µg/mL
solubility at 30 min [1, 10]: < 100 µg/mL
solubility at 30 min [1, 11]: < 100 µg/mL

O=[N+]([O-])c1ccc([O-])c2ncccc12.[Na+] [APL-1072, Nitroxoline Sodium Salt]
solubility at 30 min [1, 4]: 1000 to 10000 µg/mL
solubility at 30 min [1, 5]: < 100 µg/mL
solubility at 30 min [1, 6]: < 100 µg/mL
solubility at 30 min [1, 7]: < 100 µg/mL
solubility at 30 min [1, 8]: < 100 µg/mL
solubility at 30 min [1, 9]: < 100 µg/mL
solubility at 30 min [1, 10]: < 100 µg/mL
solubility at 30 min [1, 11]: < 100 µg/mL
solubility at a physiologically relevant pH [1]: significantly improved solubility

Br.O=[N+]([O-])c1ccc(O)c2ncccc12 [APL-1074, Nitroxoline HBr Salt]
solubility at 30 min [1, 4]: < 100 µg/mL
solubility at 30 min [1, 5]: 1000 to 10000 µg/mL
solubility at 30 min [1, 6]: < 100 µg/mL
solubility at 30 min [1, 7]: < 100 µg/mL
solubility at 30 min [1, 8]: < 100 µg/mL
solubility at 30 min [1, 9]: < 100 µg/mL
solubility at 30 min [1, 10]: < 100 µg/mL
solubility at 30 min [1, 11]: < 100 µg/mL

O=[N+]([O-])c1ccc(O)c2ncccc12 [APL-1075, Nitroxoline HNO3 Salt]
solubility at 30 min [1, 6]: < 100 µg/mL
solubility at 30 min [1, 7]: < 100 µg/mL
solubility at 30 min [1, 8]: < 100 µg/mL
solubility at 30 min [1, 9]: < 100 µg/mL

O=[N+]([O-])c1ccc([O-])c2ncccc12.[K+] [APL-1077, Nitroxoline Potassium Salt]
solubility at 30 min [1, 4]: 1000 to 10000 µg/mL
solubility at 30 min [1, 5]: < 100 µg/mL
solubility at 30 min [1, 6]: < 100 µg/mL
solubility at 30 min [1, 7]: < 100 µg/mL
solubility at 30 min [1, 8]: < 100 µg/mL
solubility at 30 min [1, 9]: < 100 µg/mL
solubility at 30 min [1, 10]: < 100 µg/mL
solubility at 30 min [1, 11]: 1000 to 10000 µg/mL
solubility at a physiologically relevant pH [1]: significantly improved solubility

O=[N+]([O-])c1ccc(O)c2ncccc12 [APL-1092, Nitroxoline Lysine Salt]
24-Hr Accumulated drug in the urine ([2]; In Mice, 41.8 mg/Kg APL-1202 or equivalent dose, 41.8 mg/kg): 139 µg
Total mass of nitroxoline in urine and wash ([2]; individual mice, oral, equivalent of 41.8 mg/Kg nitroxoline, 0-24 hr, 41.8 mg/kg): 174297 ng and 118681 ng and 56516 ng and 155110 ng and 87439 ng and 143396 ng
f (%): percentage of total mass of excreted drug versus the dose amount ([2]; individual mice, oral, equivalent of 41.8 mg/Kg nitroxoline, 41.8 mg/kg): 34.7% and 22.3% and 11.1% and 28.4% and 17.7% and 19.8%
Mass of nitroxoline, 0~2 wash ([2]; individual mice, oral, equivalent of 41.8 mg/Kg nitroxoline, cage wash 0~2 hr, 41.8 mg/kg): 113000 ng and 25240 ng and 15015 ng and 25300 ng and 47650 ng and 19320 ng
Mass of nitroxoline, 2~6 wash ([2]; individual mice, oral, equivalent of 41.8 mg/Kg nitroxoline, cage wash 2~6 hr, 41.8 mg/kg): 6055 ng and 3618 ng and 8190 ng and 4635 ng and 4868 ng and 1960 ng
Mass of nitroxoline, 6~24 wash ([2]; individual mice, oral, equivalent of 41.8 mg/Kg nitroxoline, cage wash 6~24 hr, 41.8 mg/kg): 296 ng and 158 ng and 246 ng and 286 ng and 227 ng and 190 ng
Mass of nitroxoline in urine, 0-2 hr ([2]; individual mice, oral, equivalent of 41.8 mg/Kg nitroxoline, urine 0-2 hr, 41.8 mg/kg): 51600 ng and 84300 ng and 31970 ng and 107380 ng and 31122 ng and 120000 ng
Mass of nitroxoline in urine, 2-6 hr ([2]; individual mice, oral, equivalent of 41.8 mg/Kg nitroxoline, urine 2-6 hr, 41.8 mg/kg): 3308.5 ng and 5263.2 ng and 1084 ng and 17458 ng and 3500 ng and 1846 ng
Mass of nitroxoline in urine, 6-24 hr ([2]; individual mice, oral, equivalent of 41.8 mg/Kg nitroxoline, urine 6-24 hr, 41.8 mg/kg): 37.5 ng and 101.64 ng and 10.4 ng and 51 ng and 73 ng and 79.6 ng
Total mass of nitroxoline in urine and wash, Mean ([2]; mean of mice, oral, equivalent of 41.8 mg/Kg nitroxoline, 0-24 hr, 41.8 mg/kg): 122573 ng
f (%): percentage of total mass of excreted drug versus the dose amount, Mean ([2]; mean of mice, oral, equivalent of 41.8 mg/Kg nitroxoline, 41.8 mg/kg): 22.3%
Mass of nitroxoline, 0~2 wash, Mean ([2]; mean of mice, oral, equivalent of 41.8 mg/Kg nitroxoline, cage wash 0~2 hr, 41.8 mg/kg): 40921 ng
Mass of nitroxoline, 2~6 wash, Mean ([2]; mean of mice, oral, equivalent of 41.8 mg/Kg nitroxoline, cage wash 2~6 hr, 41.8 mg/kg): 4888 ng
Mass of nitroxoline, 6~24 wash, Mean ([2]; mean of mice, oral, equivalent of 41.8 mg/Kg nitroxoline, cage wash 6~24 hr, 41.8 mg/kg): 234 ng
Mass of nitroxoline in urine, 0-2 hr, Mean ([2]; mean of mice, oral, equivalent of 41.8 mg/Kg nitroxoline, urine 0-2 hr, 41.8 mg/kg): 71062 ng
Mass of nitroxoline in urine, 2-6 hr, Mean ([2]; mean of mice, oral, equivalent of 41.8 mg/Kg nitroxoline, urine 2-6 hr, 41.8 mg/kg): 5410 ng
Mass of nitroxoline in urine, 6-24 hr, Mean ([2]; mean of mice, oral, equivalent of 41.8 mg/Kg nitroxoline, urine 6-24 hr, 41.8 mg/kg): 58.8 ng
increase of drug excretion in the urine as compared to nitroxoline ([2]; mice, dosed at the equivalent amount of nitroxoline in moles): approximately two times greater
24-Hr Accumulated drug in the urine ([3]; In Dogs, 75 mg APL-1202 or equivalent amount): 617 µg
increase in drug excretion in the urine as compared to nitroxoline ([3]; beagle dogs, dosed at the equivalent amount of nitroxoline in moles): more than five times
f (%): percentage of total mass of excreted drug versus the dose amount ([3]; individual dogs, oral tablet, 75 mg nitroxoline equivalent): 1.1% and 0.419% and 0.949%
Total mass of nitroxoline in urine ([3]; individual dogs, oral tablet, 75 mg nitroxoline equivalent, 0-24 hr): 825000 ng and 313943 ng and 711720 ng
Mass of nitroxoline in urine, 0-2 hr ([3]; individual dogs, oral tablet, 75 mg nitroxoline equivalent, collection 0-2 hr): 0 ng and 15153 ng and 163020 ng
Mass of nitroxoline in urine, 2-4 hr ([3]; individual dogs, oral tablet, 75 mg nitroxoline equivalent, collection 2-4 hr): 0 ng and 130150 ng and 219300 ng
Mass of nitroxoline in urine, 4-6 hr ([3]; individual dogs, oral tablet, 75 mg nitroxoline equivalent, collection 4-6 hr): 0 ng (2×) and 96900 ng
Mass of nitroxoline in urine, 6-8 hr ([3]; individual dogs, oral tablet, 75 mg nitroxoline equivalent, collection 6-8 hr): 0 ng (2×) and 22165 ng
Mass of nitroxoline in urine, 8-24 hr ([3]; individual dogs, oral tablet, 75 mg nitroxoline equivalent, collection 8-24 hr): 825000 ng and 49575 ng and 329400 ng
f (%): percentage of total mass of excreted drug versus the dose amount, Mean ([3]; mean of dogs, oral tablet, 75 mg nitroxoline equivalent): 0.823%
Total mass of nitroxoline in urine, Mean ([3]; mean of dogs, oral tablet, 75 mg nitroxoline equivalent, 0-24 hr): 616888 ng
Mass of nitroxoline in urine, 0-2 hr, Mean ([3]; mean of dogs, oral tablet, 75 mg nitroxoline equivalent, collection 0-2 hr): 89086 ng
Mass of nitroxoline in urine, 2-4 hr, Mean ([3]; mean of dogs, oral tablet, 75 mg nitroxoline equivalent, collection 2-4 hr): 174725 ng
Mass of nitroxoline in urine, 4-6 hr, Mean ([3]; mean of dogs, oral tablet, 75 mg nitroxoline equivalent, collection 4-6 hr): 96900 ng
Mass of nitroxoline in urine, 6-8 hr, Mean ([3]; mean of dogs, oral tablet, 75 mg nitroxoline equivalent, collection 6-8 hr): 22165 ng
Mass of nitroxoline in urine, 8-24 hr, Mean ([3]; mean of dogs, oral tablet, 75 mg nitroxoline equivalent, collection 8-24 hr): 401325 ng
